Assay results published in the Deep4Chem optical property database.

Assay: solvent given as SMILES

Compound `COc1ccc(/C=C/c2cc(/C=C/c3ccc(N(c4ccccc4)c4ccccc4)cc3)nc(/C=C/c3ccc(N(C)C)cc3)n2)cc1` has an emission maximum (in C1CCOC1) of 436 nm, an emission maximum (in CC#N) of 463 nm and an emission maximum (in CC(C)=O) of 452 nm. The emission maximum (in CCCCCCC) was 398 nm, the emission maximum (in CS(C)=O) was 485 nm and the emission maximum (in Cc1ccccc1) was 411 nm. The emission maximum (in ClCCl) was 548 nm.
`CCCCCCc1ccc(-n2c3c4cccc(OC)c4nc(-c4ccc(OC)cc4)c3c3c2c2c(-c4ccc(OC)cc4)nc4c(OC)cccc4c2n3-c2ccc(CCCCCC)cc2)cc1` gave an emission maximum (in ClC(Cl)Cl) of 453 nm.
With `Nc1ccc(C#Cc2ccc3ccc4ccc(C#Cc5ccc(NS(=O)(=O)c6ccc([N+](=O)[O-])cc6[N+](=O)[O-])cc5)c5ccc2c3c45)cc1` the emission maximum (in CO) was 552 nm.
Work on `O=C1c2ccc(N(c3ccc(-c4ccccc4)cc3)c3ccc(-c4ccccc4)cc3)cc2C(=O)c2ccc(N(c3ccc(-c4ccccc4)cc3)c3ccc(-c4ccccc4)cc3)cc21` yielded an emission maximum (in Cc1ccccc1) of 629 nm and an emission maximum (in c1ccc2c(c1)c1ccccc1n2-c1ccc(-c2ccc(-n3c4ccccc4c4ccccc43)cc2)cc1) of 603 nm.
Work on `CCN(CC)c1ccc(-c2cc3c(s2)c(C(=O)OC)cc(=O)n3C)cc1` yielded an emission maximum (in C1CCOC1) of 543 nm, an emission maximum (in CC#N) of 605 nm and an emission maximum (in CCO) of 516 nm. For the same compound, the emission maximum (in CN(C)C=O) was 604 nm, the emission maximum (in CO) was 503 nm and the emission maximum (in CS(C)=O) was 615 nm. It also gave an emission maximum (in Cc1ccccc1) of 504 nm, an emission maximum (in ClC(Cl)Cl) of 545 nm and an emission maximum (in ClCCl) of 562 nm.
Work on `O=C(O)CCCc1cc(C#Cc2ccccc2)c2ccc3c(C#Cc4ccccc4)cc(C#Cc4ccccc4)c4ccc1c2c34` yielded an emission maximum (in CS(C)=O) of 461 nm and an emission maximum (in ClC(Cl)(Cl)Cl) of 460 nm.
For `N#Cc1nc(N(Cc2ccc(Br)cc2)Cc2ccc(Br)cc2)c(C#N)nc1N(Cc1ccc(Br)cc1)Cc1ccc(Br)cc1`, the emission maximum (in ClC(Cl)Cl) was 575 nm.
In the case of `COc1ccc(/C=C(\C)c2nc3ccccc3s2)cc1`, the emission maximum (in C1CCCCC1) is reported as 400 nm and the emission maximum (in CO) is reported as 420 nm.
With `CCCCCCNC(=O)c1sc(-c2ccc(-c3cc(-c4ccc(C(C)(C)C)cc4)c(C(=O)NCCCCCC)s3)s2)cc1-c1ccc(C(C)(C)C)cc1` the emission maximum (in ClCCl) was 448 nm.
Compound `CC1=CC(c2ccc3cc(N(C)C)ccc3c2)=[O+][B-](F)(F)O1` has an emission maximum (in C1CCOC1) of 566 nm, an emission maximum (in CC#N) of 611 nm and an emission maximum (in CC(C)=O) of 492 nm. The emission maximum (in CS(C)=O) was 624 nm, the emission maximum (in Cc1ccccc1) was 521 nm and the emission maximum (in ClC(Cl)Cl) was 552 nm. For the same compound, the emission maximum (in ClCCl) was 574 nm.
`COC1(OC)C2(Cl)c3nc4cc(-c5cccs5)ccc4nc3C1(Cl)C1C[C@H]3[C@@H](CC12)C1(Cl)c2nc4ccc(-c5cccs5)cc4nc2C3(Cl)C1(OC)OC` (some centres undefined) gave an emission maximum (in CC#N) of 461 nm, an emission maximum (in CCCCCC) of 412 nm and an emission maximum (in CCOC(C)=O) of 439 nm. It also gave an emission maximum (in CO) of 491 nm, an emission maximum (in Cc1ccccc1) of 427 nm and an emission maximum (in ClC(Cl)Cl) of 441 nm. It also gave an emission maximum (in ClCCl) of 445 nm.
`Cc1ccc(/C=C/C(F)(F)F)c(N)c1` showed an emission maximum (in C1CCOC1) of 423 nm.
Work on `CC1(C)CC(/C=C/c2ccc(-n3cncn3)cc2)=CC(=C(C#N)C#N)C1` yielded an emission maximum (in C1CCOC1) of 520 nm, an emission maximum (in CC#N) of 522 nm and an emission maximum (in CCO) of 518 nm. The emission maximum (in CCOC(C)=O) was 515 nm, the emission maximum (in ClCCl) was 518 nm and the emission maximum (in c1ccccc1) was 511 nm.
Compound `O=C1O[B-]2(OC1=O)OC(c1ccccc1)=CC(c1ccc3ccccc3c1)=[O+]2` has an emission maximum (in CC#N) of 555 nm and an emission maximum (in ClC(Cl)(Cl)Cl) of 451 nm.
`Cc1cc(C)cc(C)c1` showed an emission maximum (in C1CCCCC1) of 294.72 nm.
`O=S1(=O)c2ccc(-c3ccc(-n4c5ccccc5c5ccccc54)cc3)cc2C2(c3ccccc3-c3ccccc32)c2cc(-c3ccc(-n4c5ccccc5c5ccccc54)cc3)ccc21` showed an emission maximum (in CC(C)=O) of 443.88 nm, an emission maximum (in CCCCCC) of 400.18 nm and an emission maximum (in CN(C)C=O) of 455.8 nm. For the same compound, the emission maximum (in Cc1ccccc1) was 396.57 nm and the emission maximum (in ClCCl) was 432 nm.
`CCCCc1ccc(-n2c3c(c4c2c2c(n4-c4ccc(CCCC)cc4)-c4ccc(C(F)(F)F)cc4NB2c2ccccc2)B(c2ccccc2)Nc2cc(C(F)(F)F)ccc2-3)cc1` gave an emission maximum (in Cc1ccccc1) of 413 nm.
Work on `CC(C)(C)c1ccc(C2=C(Br)C3=C(c4ccccc4)c4c(Br)c(-c5ccc(C(C)(C)C)cc5)c(-c5ccc(C(C)(C)C)cc5)n4[B-](F)(F)[N+]3=C2c2ccc(C(C)(C)C)cc2)cc1` yielded an emission maximum (in C1CCCCC1) of 614 nm, an emission maximum (in C1CCOC1) of 617 nm and an emission maximum (in CC#N) of 613 nm. It also gave an emission maximum (in Cc1ccccc1) of 618 nm and an emission maximum (in ClCCl) of 619 nm.
For `O=S(=O)([O-])c1cccc2c(O)cccc12`, the emission maximum (in O) was 426 nm.
`C(#Cc1cccc2cc(-c3ccccc3)c3cc(-c4cc[b-]5c(c4)c(-c4ccccc4)cc4cccc(C#Cc6ccccc6)[n+]54)cc[b-]3[n+]12)c1ccccc1` showed an emission maximum (in C1CCCCC1) of 630 nm.
For `CC1=CC(C)=[N+]2C1=C(c1c3ccccc3c(-c3ccccc3)c3ccccc13)c1c(C)cc(C)n1[B-]2(F)F`, the emission maximum (in CC#N) was 508 nm, the emission maximum (in CCCCCC) was 514 nm and the emission maximum (in CCO) was 512 nm. It also gave an emission maximum (in CN(C)C=O) of 515 nm, an emission maximum (in Cc1ccccc1) of 519 nm and an emission maximum (in ClCCl) of 515 nm.
